Laboratory results from PubChem BioAssay (NCI).
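Briefly, cells in 96-well plates were exposed to five compound concentrations for 48 h, and endpoints were estimated by linear interpolation. The concentration for 50% growth inhibition is given as GI50. TGI is the concentration that stops growth completely.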

Columns and labels:
Assay in all cases: DTP human tumour cell line panel, 48 h
NCI-H226 lung = tested on: NCI-H226 lung
LOX IMVI melanoma = tested on: LOX IMVI melanoma
HCT-116 colon = tested on: HCT-116 colon
SNB-19 CNS = tested on: SNB-19 CNS
U251 CNS = tested on: U251 CNS
SF-268 CNS = tested on: SF-268 CNS
HS 578T breast = tested on: HS 578T breast
MDA-MB-435 = tested on: MDA-MB-435
HOP-92 NSCLC = tested on: HOP-92 NSCLC
OVCAR-5 ovarian = tested on: OVCAR-5 ovarian
SR leukemia = tested on: SR leukemia
CCRF-CEM leukemia = tested on: CCRF-CEM leukemia
K-562 leukemia = tested on: K-562 leukemia
CAKI-1 renal = tested on: CAKI-1 renal
HT29 colon = tested on: HT29 colon
A549 NSCLC = tested on: A549 NSCLC
COLO 205 colon = tested on: COLO 205 colon
UACC-62 melanoma = tested on: UACC-62 melanoma
SF-295 CNS = tested on: SF-295 CNS
OVCAR-4 ovarian = tested on: OVCAR-4 ovarian
PC-3 prostate = tested on: PC-3 prostate
NCI/ADR-RES ovarian = tested on: NCI/ADR-RES ovarian
SK-MEL-5 melanoma = tested on: SK-MEL-5 melanoma
SK-MEL-2 melanoma = tested on: SK-MEL-2 melanoma
SK-OV-3 ovarian = tested on: SK-OV-3 ovarian
SK-MEL-28 melanoma = tested on: SK-MEL-28 melanoma
KM12 colon = tested on: KM12 colon
TK-10 renal = tested on: TK-10 renal
MCF7 breast = tested on: MCF7 breast
T-47D breast = tested on: T-47D breast
EKVX NSCLC = tested on: EKVX NSCLC
ACHN renal = tested on: ACHN renal
A498 renal = tested on: A498 renal
MALME-3M melanoma = tested on: MALME-3M melanoma
HL-60(TB) leukemia = tested on: HL-60(TB) leukemia
UACC-257 melanoma = tested on: UACC-257 melanoma
HCC-2998 colon = tested on: HCC-2998 colon
HCT-15 colon = tested on: HCT-15 colon
786-0 renal = tested on: 786-0 renal
SNB-75 CNS = tested on: SNB-75 CNS
IGROV1 ovarian = tested on: IGROV1 ovarian
SW-620 colon = tested on: SW-620 colon
MOLT-4 leukemia = tested on: MOLT-4 leukemia
NCI-H522 lung = tested on: NCI-H522 lung
UO-31 renal = tested on: UO-31 renal
SF-539 CNS = tested on: SF-539 CNS
SN12C renal = tested on: SN12C renal
NCI-H23 lung = tested on: NCI-H23 lung
NCI-H460 lung = tested on: NCI-H460 lung
RXF 393 renal = tested on: RXF 393 renal
OVCAR-3 ovarian = tested on: OVCAR-3 ovarian
M14 melanoma = tested on: M14 melanoma
HOP-62 NSCLC = tested on: HOP-62 NSCLC
OVCAR-8 ovarian = tested on: OVCAR-8 ovarian
DU-145 prostate = tested on: DU-145 prostate
BT-549 breast = tested on: BT-549 breast
MDA-MB-231 breast = tested on: MDA-MB-231 breast

Clc1ccccc1CNc1c2ccccc2nc2ccccc12
GI50 (NCI-H226 lung): 2.22 µM
TGI (NCI-H226 lung): 10.1 µM
GI50 (LOX IMVI melanoma): 1.57 µM
TGI (LOX IMVI melanoma): 5.93 µM
GI50 (HCT-116 colon): 1.65 µM
TGI (HCT-116 colon): 8.1 µM
GI50 (SNB-19 CNS): 2.28 µM
TGI (SNB-19 CNS): 8.96 µM
GI50 (U251 CNS): 2.36 µM
TGI (U251 CNS): 9.7 µM
GI50 (SF-268 CNS): 2.95 µM
TGI (SF-268 CNS): 11.4 µM
GI50 (HS 578T breast): 5.97 µM
TGI (HS 578T breast): 18.1 µM
GI50 (MDA-MB-435): 1.96 µM
TGI (MDA-MB-435): 8.14 µM
GI50 (HOP-92 NSCLC): 1.91 µM
TGI (HOP-92 NSCLC): 8.45 µM
GI50 (OVCAR-5 ovarian): 2.16 µM
TGI (OVCAR-5 ovarian): 9.09 µM
GI50 (SR leukemia): 1.89 µM
TGI (SR leukemia): 6.99 µM
GI50 (CCRF-CEM leukemia): 2.74 µM
TGI (CCRF-CEM leukemia): 50 µM
GI50 (K-562 leukemia): 1.48 µM
TGI (K-562 leukemia): 41.7 µM
GI50 (CAKI-1 renal): 2.11 µM
TGI (CAKI-1 renal): 8.08 µM
GI50 (HT29 colon): 1.67 µM
TGI (HT29 colon): 9.02 µM
GI50 (A549 NSCLC): 2.21 µM
TGI (A549 NSCLC): 10.7 µM
GI50 (COLO 205 colon): 1.6 µM
TGI (COLO 205 colon): 6.16 µM
GI50 (UACC-62 melanoma): 2.3 µM
TGI (UACC-62 melanoma): 9.18 µM
GI50 (SF-295 CNS): 1.59 µM
TGI (SF-295 CNS): 7.31 µM
GI50 (OVCAR-4 ovarian): 2.13 µM
TGI (OVCAR-4 ovarian): 8.11 µM
GI50 (PC-3 prostate): 2.24 µM
TGI (PC-3 prostate): 11.9 µM
GI50 (NCI/ADR-RES ovarian): 2.04 µM
TGI (NCI/ADR-RES ovarian): 9.52 µM
GI50 (SK-MEL-5 melanoma): 3.09 µM
TGI (SK-MEL-5 melanoma): 9.34 µM
GI50 (SK-MEL-2 melanoma): 3.26 µM
TGI (SK-MEL-2 melanoma): 12.5 µM
GI50 (SK-OV-3 ovarian): 5.41 µM
TGI (SK-OV-3 ovarian): 12.6 µM
GI50 (SK-MEL-28 melanoma): 2.75 µM
TGI (SK-MEL-28 melanoma): 9.21 µM
GI50 (KM12 colon): 2.03 µM
TGI (KM12 colon): 8.28 µM
GI50 (TK-10 renal): 3.98 µM
TGI (TK-10 renal): 11 µM
GI50 (MCF7 breast): 1.27 µM
TGI (MCF7 breast): 5.63 µM
GI50 (T-47D breast): 2.3 µM
TGI (T-47D breast): 13 µM
GI50 (EKVX NSCLC): 2.77 µM
TGI (EKVX NSCLC): 9.85 µM
GI50 (ACHN renal): 1.76 µM
TGI (ACHN renal): 6.89 µM
GI50 (A498 renal): 1.75 µM
TGI (A498 renal): 6.94 µM
GI50 (MALME-3M melanoma): 2.71 µM
TGI (MALME-3M melanoma): 9.1 µM
GI50 (HL-60(TB) leukemia): 2.05 µM
TGI (HL-60(TB) leukemia): 9.71 µM
GI50 (UACC-257 melanoma): 2.99 µM
TGI (UACC-257 melanoma): 11.5 µM
GI50 (HCC-2998 colon): 1.5 µM
TGI (HCC-2998 colon): 5.57 µM
GI50 (HCT-15 colon): 1.69 µM
TGI (HCT-15 colon): 6.85 µM
GI50 (786-0 renal): 2.72 µM
TGI (786-0 renal): 11 µM
GI50 (SNB-75 CNS): 2.55 µM
TGI (SNB-75 CNS): 9.63 µM
GI50 (IGROV1 ovarian): 1.88 µM
TGI (IGROV1 ovarian): 8.83 µM
GI50 (SW-620 colon): 1.67 µM
TGI (SW-620 colon): 6.56 µM
GI50 (MOLT-4 leukemia): 1.84 µM
TGI (MOLT-4 leukemia): 16.3 µM
GI50 (NCI-H522 lung): 5.05 µM
TGI (NCI-H522 lung): 21.3 µM
GI50 (UO-31 renal): 1.35 µM
TGI (UO-31 renal): 6.96 µM
GI50 (SF-539 CNS): 1.84 µM
TGI (SF-539 CNS): 6.71 µM
GI50 (SN12C renal): 1.93 µM
TGI (SN12C renal): 8.27 µM
GI50 (NCI-H23 lung): 1.67 µM
TGI (NCI-H23 lung): 8.9 µM
GI50 (NCI-H460 lung): 1.7 µM
TGI (NCI-H460 lung): 6.19 µM
GI50 (RXF 393 renal): 1.29 µM
TGI (RXF 393 renal): 4.44 µM
GI50 (OVCAR-3 ovarian): 3.39 µM
TGI (OVCAR-3 ovarian): 10.5 µM
GI50 (M14 melanoma): 2.04 µM
TGI (M14 melanoma): 9.98 µM
GI50 (HOP-62 NSCLC): 3.62 µM
TGI (HOP-62 NSCLC): 12.8 µM
GI50 (OVCAR-8 ovarian): 2.41 µM
TGI (OVCAR-8 ovarian): 13.3 µM
GI50 (DU-145 prostate): 2.45 µM
TGI (DU-145 prostate): 8.58 µM
GI50 (BT-549 breast): 4.17 µM
TGI (BT-549 breast): 12 µM
GI50 (MDA-MB-231 breast): 2.39 µM
TGI (MDA-MB-231 breast): 10.2 µM
